In patent US20160128339A1, “CHROMOBACTERIUM FORMULATIONS, COMPOSITIONS, METABLOITES AND THEIR USES” (priority 2011, published 2016):

Assays:
TSSM = TSSM control on field strawberry transplants; type: in vivo, Tetranychus urticae; settings: rate/acre: abamectin 16 fl. oz., bifenzate 1 lb + INDUCE, COHERE 16 fl. oz., spiromesifin 12 fl. oz. + INDUCE, fenpyroximate 32 fl. oz., hexythiazox 6 oz.; for Number of eggs TSSM/leaflet day 90 / Number of motile TSSM/leaflet day 90: before first spray
Description: The efficacy of five traditional compounds and MBI-203 ingredients were evaluated for TSSM control on field strawberry transplants at the Florida Gulf Coast Research and Education Center. Seedlings were transplanted in the Field (day 0), Each 12.5-ft. plot consisted of 20 plants. Plots were infested four times from day 55 through day 71 with 10 to 20 motile TSSM per plant. Seventeen treatments of various rates and schedules of application of miticides, some combined with an adjuvant, and a non-treated check were replicated four times in a RCB design. Treatments were applied using a hand held sprayer with a spray wand outfitted with a nozzle containing a 45-degree core and a number four disc. The sprayer was pressurized by CO2, to 40 psi, and calibrated to deliver 100 gal per acre. Samples were collected weekly from day 90 before first spray through 2 wks after the last application of treatments (day 154). Samples consisted of ten randomly selected leaflets per plot and were collected from the middle one-third stratum of the plants. Motile and egg TSSM were brushed from the leaflets onto rotating sticky discs and counted. No phytotoxicity was observed.

[1] = system: Green Peach Aphid adults (GPA); test: Green peach aphid choice repellency bioassay of extracts, fractions and pure compound; type: in vivo, Myzus persicae; settings: violacein purified from F9 and F10
Description: Choice bioassays on Green Peach Aphid adults (GPA) were done using MBI-203 fractions and pure compound. Fractions and pure compound (violacein) obtained from the extraction of cell paste of C. substugae (MBI-203) were tested for insect efficacy through repellency bioassays. Pepper leaf discs (from 3-4 week old pepper plants) were cut in circles using a 23 mm cookie cutter, selecting a flat portion of the leaf to make sure the leaf disc can be evenly laid flat into the agar plate after treatment of the compound. One percent (%) agar in water was prepared. The 1% agar solution was melted by heating and poured into the 145 mm×20 mm petri plate, enough to cover the bottom surface of the plate to prop leaf discs and maintain humidity. The agar was allowed to solidify by cooling at room temperature.
Leaf disc treatment was done by pipetting gently 100 μL of MBI-203 extract unto the underside of the leaf disc. Treated leaf discs were then allowed to dry off by laying the disc flat unto a labeled 12-well plate cover. […]
All tests were done in three replications. […] Data for repellency of adults and nymphs was determined 24 hours post exposure of adults on treated leaf discs. The number of aphids (adults and nymphs) was counted and data recorded and analyzed, The percent repellency was computed as: % Repellency=100-{([N+A]“on petri dish”)/[N+A]“on petri dish” X100}, […]

[2] = system: green peach aphid (GPA) adults; test: Green peach aphid progeny production on treated pepper leaf discs; type: in vivo, Myzus persicae; settings: 1.0 μg/mL in acetone, 100 μL per leaf disc; 3 days
Description: MBI-203 at 3% v/v concentration was tested to determine the effect of the compound on the progeny production of green peach aphid (GPA) adults. Bioassays were performed by iteming pepper leaf discs with MBI-203 at 3% v/v. Pepper leaf discs (from 3-4 week old pepper plants) were cut in circles using a 23 mm cookie cutter, selecting a flat portion of tbe leaf to make sure the disc can be evenly laid flat on the agar plate. A 1% agar solution was melted by heating and 30 μL, poured in each petri plate (16 mm×35 mm vented, polystyrene petri plates), just enough to cover the bottom of the plate to prop leaf discs and maintain humidity. The agar was allowed to solidify by cooling at room temperature. Leaf disc treatment was performed by pouring the treatment solution into a glass petri dish. With the solution in the dish, leaf discs were treated by soaking, gently swirling the dish to completely soak and coat the leaf discs. Treatment of leaf discs by soaking was done for 1 minute. […] Progeny (early nymphal instars) were counted 3 days after adult exposure to treated leaf discs. […]
Two concentrations of pare violacein compound in acetone, 0.5 μg/mL and 1.0 μg/mL were used in the test to determine the effect of the compound on the progeny production of green peach aphid (GPA) adults. […] Progeny (early nymphal instars) were counted 3 days after adult exposure to treated leaf discs. […]

M. hapla nematodes = test: In vitro 96-well nematode immobility bioassay; type: in vivo; settings: M. hapla J2; 100 μl of 4 mg/ml sample; 24 hour at 25° C.
Description: The fractions and pure compounds were dissolved in Dimethylsulfoxide (DMSO) and were tested in an in vitro 96-well plastic cell-culture plate bioassay. Around 15-20 nematodes in a 50 μl water solution were exposed to 100 μl of a 4 mg/ml of sample for a 24 hour period at 25° C. Once the incubation period was completed, results were recorded based on a visual grading of immobility of the juvenile nematodes (J2°s) in each well treated with sampler; each treatment was tested in well repetitions of four. […] Three controls were included in each trial; 1 positive (1% Avid) & 2 negative (DMSO & water). Both trials (T1) and (T2) were carried out using M. hapla nematodes.

Compound	Number of eggs TSSM/leaflet day 90 (TSSM)	Number of motile TSSM/leaflet day 90 (TSSM)	Number of eggs TSSM/leaflet day 98 (TSSM)	Number of eggs TSSM/leaflet day 105 (TSSM)	Number of eggs TSSM/leaflet day 111 (TSSM)	Number of eggs TSSM/leaflet day 118 (TSSM)	Number of eggs TSSM/leaflet day 125 (TSSM)	Number of eggs TSSM/leaflet day 132 (TSSM)	Number of eggs TSSM/leaflet day 139 (TSSM)	Number of eggs TSSM/leaflet day 146 (TSSM)	Number of eggs TSSM/leaflet day 154 (TSSM)	Number of motile TSSM/leaflet day 98 (TSSM)	Number of motile TSSM/leaflet day 105 (TSSM)	Number of motile TSSM/leaflet day 111 (TSSM)	Number of motile TSSM/leaflet day 118 (TSSM)	Number of motile TSSM/leaflet day 125 (TSSM)	Number of motile TSSM/leaflet day 132 (TSSM)	Number of motile TSSM/leaflet day 139 (TSSM)	Number of motile TSSM/leaflet day 146 (TSSM)	Number of motile TSSM/leaflet day 154 (TSSM)	also measured
COc1ccc(-c2ccccc2)cc1NNC(=O)OC(C)C [Bifenzate]	3.8	3.8	6.0	6.0	0.8	8.3	20.5	3.01	28.0	66.5	128.3	6.0	6.0	0.8	8.3	20.5	3.0	28.0	66.5	128.3	–
Cc1nn(C)c(Oc2ccccc2)c1C=NOCc1ccc(C(=O)OC(C)(C)C)cc1 [Fenpyroximate]	9.3	4.5	11.8	12.3	12.5	1.0	34.5	20.8	28.5	97.3	240.8	3.8	6.5	2.8	2.0	7.3	5.3	10.0	34.3	145.3	–
C[C@@H]1[C@@H](c2ccc(Cl)cc2)SC(=O)N1C(=O)NC1CCCCC1 [Hexythiazox]	2.0	2.0	8.5	15.0	17.0	22.0	71.5	128.5	281.5	393.5	533.0	1.8	2.8	6.0	13.8	23.0	57.5	103.3	196.0	285.5	–
Cc1cc(C)c(C2=C(OC(=O)CC(C)(C)C)C3(CCCC3)OC2=O)c(C)c1 [Spiromesifin]	7.3	2.8	5.3	7.3	5.0	1.5	2.3	2.8	0.8	4.5	25.5	2.3	2.0	2.3	0.5	0.8	0.5	2.5	2.8	6.0	–
O=C1NC(c2c[nH]c3ccc(O)cc23)=C/C1=C1\C(=O)Nc2ccccc21 [violacein]	–	–	–	–	–	–	–	–	–	–	–	–	–	–	–	–	–	–	–	–	repellency [1]: 300%; reduction of progeny production compared to the negative control [2]: about 50%
Abamectin	6.8	8.5	17.0	26.5	12.0	1.3	2.3	6.5	3.5	3.5	41.3	4.5	6.3	5.3	0.5	0.5	3.0	6.3	6.8	15.3	–
Oligo-(β-hydroxybutyric acid)	–	–	–	–	–	–	–	–	–	–	–	–	–	–	–	–	–	–	–	–	immobility (M. hapla nematodes): 75%
